# Data published in patent US20190030018A1 (Celgene Corporation, priority 2017, published 2019).
# System: 563 solid tumor cell lines
# Assay: Luminex assay in PRISM, 5 days treatment (AUC)
# Assay type: cell-based
# Parameters: AUC: scale not given here
# Experimental: The AUC values provided in Table 80 below were calculated based on the Median Fluorescent Intensity values, the primary read out of the Luminex assay in PRISM. The following parameters were used in this assay: • 8 point dose was used in triplicate • max concentration of 10 μM was used with serial 4-fold dilutions (low of […]) • 563 adherent cell lines in 23 pools. • treatment duration was 5 days.
smiles,measurement,setting,value
"O=C1CCC(N2Cc3cc(CNC(=O)C(F)(F)c4ccc(Cl)cc4)ccc3C2=O)C(=O)N1 (stereo not shown) [Compound 1, 2-(4-chlorophenyl)-N-((2-(2,6-dioxopiperidin-3-yl)-1-oxoisoindolin-5-yl)methyl)-2,2-difluoroacetamide]",activity on solid tumor cell lines (AUC),"8 point dose, max 10 μM, 5 days","highest activity on lung, intestine, stomach, liver, pancreatic and kidney cell lines"
same,AUC,A101D_SKIN,0.821
same,AUC,A172_CENTRAL_NERVOUS_SYSTEM,0.314
same,AUC,A204_SOFT_TISSUE,0.156
same,AUC,A253_SALIVARY_GLAND,0.864
same,AUC,A375_SKIN,0.795
same,AUC,A498_KIDNEY,0.845
same,AUC,A549_LUNG,0.857
same,AUC,A673_BONE,0.885
same,AUC,A704_KIDNEY,0.823
same,AUC,A2058_SKIN,0.818
same,AUC,A2780_OVARY,0.485
same,AUC,ABC1_LUNG,0.591
same,AUC,ACCMESO1_PLEURA,0.631
same,AUC,ACHN_KIDNEY,0.912
same,AUC,AGS_STOMACH,0.865
same,AUC,AM38_CENTRAL_NERVOUS_SYSTEM,0.543
same,AUC,AN3CA_ENDOMETRIUM,0.861
same,AUC,BCPAP_THYROID,0.782
same,AUC,BECKER_CENTRAL_NERVOUS_SYSTEM,0.874
same,AUC,BEN_LUNG,0.826
same,AUC,BFTC909_KIDNEY,0.843
same,AUC,BHT101_THYROID,0.858
same,AUC,BHY_UPPER_AERODIGESTIVE_TRACT,0.405
same,AUC,BICR6_UPPER_AERODIGESTIVE_TRACT,0.801
same,AUC,BICR16_UPPER_AERODIGESTIVE_TRACT,0.585
same,AUC,BICR18_UPPER_AERODIGESTIVE_TRACT,0.845
same,AUC,BICR56_UPPER_AERODIGESTIVE_TRACT,0.984
same,AUC,BT474_BREAST,0.801
same,AUC,BT549_BREAST,0.242
same,AUC,BXPC3_PANCREAS,0.916
same,AUC,C32_SKIN,0.881
same,AUC,CADOES1_BONE,0.566
same,AUC,CAKI2_KIDNEY,0.867
same,AUC,CAL12T_LUNG,0.366
same,AUC,CAL27_UPPER_AERODIGESTIVE_TRACT,0.812
same,AUC,CAL29_URINARY_TRACT,0.831
same,AUC,CAL51_BREAST,0.589
same,AUC,CAL54_KIDNEY,0.679
same,AUC,CAL62_THYROID,0.083
same,AUC,CAL78_BONE,0.798
same,AUC,CAL120_BREAST,0.812
same,AUC,CALU6_LUNG,0.794
same,AUC,CAMA1_BREAST,0.589
same,AUC,CAPAN2_PANCREAS,0.835
same,AUC,CBAGPN_BONE,0.236
same,AUC,CCK81_LARGE_INTESTINE,0.021
same,AUC,CFPAC1_PANCREAS,0.872
same,AUC,CHL1_SKIN,0.330
same,AUC,CHLA10_BONE,0.933
same,AUC,CJM_SKIN,0.215
same,AUC,CL11_LARGE_INTESTINE,0.849
same,AUC,CL34_LARGE_INTESTINE,0.604
same,AUC,COLO678_LARGE_INTESTINE,0.811
same,AUC,COLO679_SKIN,0.830
same,AUC,COLO680N_OESOPHAGUS,0.863
same,AUC,COLO741_SKIN,0.411
same,AUC,COLO792_SKIN,0.629
same,AUC,COLO800_SKIN,0.810
same,AUC,COLO829_SKIN,0.748
same,AUC,CORL23_LUNG,0.879
same,AUC,CORL105_LUNG,0.824
same,AUC,COV318_OVARY,0.883
same,AUC,COV362_OVARY,0.824
same,AUC,COV644_OVARY,0.994
same,AUC,DANG_PANCREAS,0.793
same,AUC,DAOY_CENTRAL_NERVOUS_SYSTEM,0.928
same,AUC,DBTRG05MG_CENTRAL_NERVOUS_SYSTEM,0.795
same,AUC,DETROIT562_UPPER_AERODIGESTIVE_TRACT,0.855
same,AUC,DMS53_LUNG,0.903
same,AUC,DMS273_LUNG,0.771
same,AUC,DU145_PROSTATE,0.878
same,AUC,DV90_LUNG,0.174
same,AUC,EBC1_LUNG,0.960
same,AUC,ECGI10_OESOPHAGUS,0.877
same,AUC,EFE184_ENDOMETRIUM,0.679
same,AUC,EFM19_BREAST,0.917
same,AUC,EFM192A_BREAST,0.766
same,AUC,EFO21_OVARY,0.843
same,AUC,EFO27_OVARY,0.534
same,AUC,EKVX_LUNG,0.837
same,AUC,EN_ENDOMETRIUM,0.831
same,AUC,ES2_OVARY,0.801
same,AUC,ESS1_ENDOMETRIUM,0.512
same,AUC,EW8_BONE,0.985
same,AUC,EWS502_BONE,0.875
same,AUC,FADU_UPPER_AERODIGESTIVE_TRACT,0.859
same,AUC,FTC133_THYROID,0.833
same,AUC,FTC238_THYROID,0.8424
same,AUC,G292CLONEA141B1_BONE,0.2746
same,AUC,G402_SOFT_TISSUE,0.8297
same,AUC,GAMG_CENTRAL_NERVOUS_SYSTEM,0.365
same,AUC,GB1_CENTRAL_NERVOUS_SYSTEM,0.8359
same,AUC,GCIY_STOMACH,0.8662
same,AUC,GI1_CENTRAL_NERVOUS_SYSTEM,0.5874
same,AUC,GMS10_CENTRAL_NERVOUS_SYSTEM,0.4048
same,AUC,GOS3_CENTRAL_NERVOUS_SYSTEM,0.5047
same,AUC,GP2D_LARGE_INTESTINE,0.796
same,AUC,HARA_LUNG,0.7964
same,AUC,HCC15_LUNG,0.9583
same,AUC,HCC38_BREAST,0.4873
same,AUC,HCC44_LUNG,0.906
same,AUC,HCC56_LARGE_INTESTINE,0.849
same,AUC,HCC78_LUNG,0.793
same,AUC,HCC366_LUNG,0.3183
same,AUC,HCC827_LUNG,0.516
same,AUC,HCC1143_BREAST,0.8133
same,AUC,HCC1195_LUNG,0.9004
same,AUC,HCC1359_LUNG,0.875
same,AUC,HCC1395_BREAST,0.9508
same,AUC,HCC1419_BREAST,0.8487
same,AUC,HCC1428_BREAST,0.9167
same,AUC,HCC1438_LUNG,0.9701
same,AUC,HCC1806_BREAST,0.8775
same,AUC,HCC1937_BREAST,0.579
